Results on 13 compounds are retold here after US12612416B2, “Modulators of cystic fibrosis transmembrane conductance regulator” (VERTEX PHARMACEUTICALS INCORPORATED, priority 2020, dated 2026).

By EC50 is commonly meant the concentration at which the effect is half-maximal.

Series [1] has as its target T1, CFTR-mediated chloride transport in human intestinal epithelial enteroid cells (Homo sapiens, UniProt P13569). The series can be described thus: Membrane potential dye, Enteroid Assay A. As to conditions: for Ent. A Max Activity: % of chloride transport of triple combination control: 3 μM (S)-N-((6-aminopyridin-2-yl)sulfonyl)-6-(3-fluoro-5-isobutoxyphenyl)-2-(2,2,4-trimethylpyrrolidin-1-yl)nicotinamide, 3 μM tezacaftor, 300 nM acute ivacaftor; for EC50: enteroid cells, 18-24 hours incubation, acute 10 μM forskolin and 300 nM ivacaftor, read-out: Ent. A EC50. It is filed as cell-based. How it is done: (§1) Base medium (ADF+++) consisted of Advanced DMEM/Ham's F12, 2 mM Glutamax, 10 mM HEPES, […] penicillin/streptomycin.
(§2) Intestinal enteroid maintenance medium (IEMM) consisted of ADF+++, 1×B27 supplement, 1×N2 supplement, 1.25 mM N-acetyl cysteine, 10 mM Nicotinamide, 50 ng/mL hEGF, 10 nM Gastrin, 1 μg/mL hR-spondin-1, 100 ng/mL hNoggin, TGF-b type 1 inhibitor A-83-01, 100 μg/mL Primocin, 10 μM P38 MAPK inhibitor SB202190.
(§3) Bath 1 Buffer consisted of 1 mM MgCl2, 160 mM NaCl, 4.5 mM KCl, 10 mM HEPES, 10 mM Glucose, 2 mM CaCl2).
(§4) Chloride Free Buffer consisted of 1 mM Magnesium Gluconate, 2 mM Calcium Gluconate, 4.5 mM Potassium Gluconate, 160 mM Sodium Gluconate, 10 mM HEPES, 10 mM Glucose.
(§5) BathI Dye Solution consisted of Bath 1 Buffer, 0.04% Pluronic F127, 20 μM Methyl Oxonol, 30 μM CaCCinh-A01, 30 μM Chicago Sky Blue.
(§6) Chloride Free Dye Solution consisted of Chloride Free Buffer, 0.04% Pluronic F127, 20 μM Methyl Oxonol, 30 μM CaCCinh-A01, 30 μM Chicago Sky Blue.
(§7) Chloride Free Dye Stimulation Solution consisted of Chloride Free Dye Solution, 10 μM forskolin, 100 μM IBMX, and 300 nM Compound III.
(§8) Human intestinal epithelial enteroid cells were obtained from the Hubrecht Institute for Developmental Biology and Stem Cell Research, Utrecht, The Netherlands and expanded in T-Flasks as previously described (Dekkers J F, Wiegerinck C L, de Jonge H R, Bronsveld I, Janssens H M, de Winter-de Groot K M, Brandsma A M, de Jong N W M, Bijvelds M J C, Scholte B J, Nieuwenhuis E E S, van den Brink S, Clevers H, van der Ent C K, Middendorp S and M Beekman J M. A functional CFTR assay using primary cystic fibrosis intestinal organoids. Nat Med. 2013 July; 19(7):939-45.).
(§9) Cells were recovered in cell recovery solution, collected by centrifugation at 650 rpm for 5 minutes at 4° C., resuspended in TrypLE and incubated for 5 minutes at 37° C. Cells were then collected by centrifugation at 650 rpm for 5 minutes at 4° C. and resuspended in IEMM containing 10 μM ROCK inhibitor (RI). The cell suspension was passed through a 40 μm cell strainer and resuspended at 1×10^6 cells/mL in IEMM containing 10 μM RI. Cells were seeded at 5000 cells/well into multi-well plates and incubated for overnight at 37° C., 95% humidity and 5% CO2 prior to assay.
(§10) Enteroid cells were incubated with test compound in IEMM for 18-24 hours at 37° C., 95% humidity and 5% C02. […] Briefly, cells were washed 5 times in Bath 1 Buffer. Bath 1 Dye Solution was added, and the cells were incubated for 25 minutes at room temperature. Following dye incubation, cells were washed 3 times in Chloride Free Dye Solution. Chloride transport was initiated by addition of Chloride Free Dye Stimulation Solution and the fluorescence signal was read for 15 minutes. […] Chloride transport was then expressed as a percentage of the chloride transport following treatment with 3 μM (S)—N-((6-aminopyridin-2-yl)sulfonyl)-6-(3-fluoro-5-isobutoxyphenyl)-2-(2,2,4-trimethylpyrrolidin-1-yl)nicotinamide, 3 μM (R)-1-(2,2-difluorobenzo[d][1,3]dioxol-5-yl)-N-(1-(2,3-dihydroxypropyl)-6-fluoro-2-(1-hydroxy-2-methylpropan-2-yl)-1H-indol-5-yl)cyclopropanecarboxamide and 300 nM acute N-[2,4-bis(1,1-dimethylethyl)-5-hydroxyphenyl]-1,4-dihydro-4-oxoquinoline-3-carboxamide triple combination control (% Activity).

For series [2] the following is noted: amide bond, 13-membered ring, HATU/DIEA, 25.0 °C.
Series [3] concerns the target T1, CFTR-mediated chloride transport in human intestinal epithelial enteroid cells. The series can be described thus: Membrane potential dye, Enteroid Assay B. It is filed as cell-based. The conditions noted are these: for Ent. B Max Activity: % of chloride transport of triple combination control: 1 μM (14S)-8-[3-(2-{Dispiro[2.0.2.1]heptan-7-yl}ethoxy)-1H-pyrazol-1-yl]-12,12-dimethyl-...-2,2,4-trione, 3 μM tezacaftor, 300 nM acute ivacaftor; for EC50: enteroid cells, 18-24 hours incubation, acute 10 μM forskolin and 300 nM ivacaftor, read-out: Ent. B EC50. How it is done: as §1, §2, §3, §4, §5, §6, §7, §8, §9
as §10, with “95% humidity,” for “95% humidity”, “was added” for “was added,”, “with 1” for “with 3”, “μM (14S)-8-[3-(2-{Dispiro[2.0.2.1]heptan-7-yl}ethoxy)-1H-pyrazol-1-yl]-12,12-dimethyl-2λ^6-thia-3,9,11,18,23-pentaazatetracyclo[17.3.1.111,14.05,10]tetracosa-1(22),5,7,9,19(23),20-hexaene-2,2,4-trione,” for “μM (S)—N-((6-aminopyridin-2-yl)sulfonyl)-6-(3-fluoro-5-isobutoxyphenyl)-2-(2,2,4-trimethylpyrrolidin-1-yl)nicotinamide,”

Like-named read-outs stand apart in the source and are kept apart here.

T1 sequence (P13569 with tags, fused parts or gaps DEL508-508): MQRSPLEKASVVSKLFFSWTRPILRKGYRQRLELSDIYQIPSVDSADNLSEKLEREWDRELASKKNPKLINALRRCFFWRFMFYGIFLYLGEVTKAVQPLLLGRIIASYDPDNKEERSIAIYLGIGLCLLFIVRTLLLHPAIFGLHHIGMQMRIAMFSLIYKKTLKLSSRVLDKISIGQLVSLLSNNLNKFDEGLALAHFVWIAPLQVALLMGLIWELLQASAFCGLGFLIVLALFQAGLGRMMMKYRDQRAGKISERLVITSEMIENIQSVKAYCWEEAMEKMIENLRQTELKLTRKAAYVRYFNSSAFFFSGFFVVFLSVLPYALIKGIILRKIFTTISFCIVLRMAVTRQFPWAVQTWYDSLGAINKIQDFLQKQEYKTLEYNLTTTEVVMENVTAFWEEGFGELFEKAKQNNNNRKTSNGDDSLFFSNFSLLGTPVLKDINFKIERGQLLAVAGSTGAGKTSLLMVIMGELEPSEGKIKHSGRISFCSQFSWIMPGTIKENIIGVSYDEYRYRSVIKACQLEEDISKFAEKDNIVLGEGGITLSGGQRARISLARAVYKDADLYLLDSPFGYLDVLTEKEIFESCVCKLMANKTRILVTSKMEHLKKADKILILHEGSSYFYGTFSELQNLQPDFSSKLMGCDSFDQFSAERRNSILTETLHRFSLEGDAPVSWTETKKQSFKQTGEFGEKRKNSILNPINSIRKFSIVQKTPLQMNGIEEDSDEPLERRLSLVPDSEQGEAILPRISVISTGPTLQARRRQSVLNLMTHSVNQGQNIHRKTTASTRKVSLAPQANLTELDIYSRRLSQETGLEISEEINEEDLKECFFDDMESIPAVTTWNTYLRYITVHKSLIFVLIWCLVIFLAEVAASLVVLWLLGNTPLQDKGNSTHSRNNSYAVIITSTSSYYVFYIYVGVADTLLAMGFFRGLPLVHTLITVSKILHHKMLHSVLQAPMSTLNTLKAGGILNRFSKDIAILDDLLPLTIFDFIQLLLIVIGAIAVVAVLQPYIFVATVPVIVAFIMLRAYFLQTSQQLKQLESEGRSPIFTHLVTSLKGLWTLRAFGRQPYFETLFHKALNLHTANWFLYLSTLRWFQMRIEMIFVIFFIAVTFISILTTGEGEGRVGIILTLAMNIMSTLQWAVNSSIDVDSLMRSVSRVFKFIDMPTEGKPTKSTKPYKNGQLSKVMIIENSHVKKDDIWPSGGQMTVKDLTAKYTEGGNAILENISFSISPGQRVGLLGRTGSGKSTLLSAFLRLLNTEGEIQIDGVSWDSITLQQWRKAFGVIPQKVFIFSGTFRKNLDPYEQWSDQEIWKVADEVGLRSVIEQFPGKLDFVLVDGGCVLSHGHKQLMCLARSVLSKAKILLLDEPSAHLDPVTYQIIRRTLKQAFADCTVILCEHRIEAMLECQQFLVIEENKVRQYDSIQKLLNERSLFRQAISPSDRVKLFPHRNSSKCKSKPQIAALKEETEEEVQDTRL

Regarding `Cc1cccc(C)c1-c1cc2nc(n1)NS(=O)(=O)c1cccc(c1)C(=O)OCC(CCC1(C(F)(F)F)CC1)N2CCC(C)C` (stereo not drawn) [Compound 30], the “Ent. A Max Activity” value in series [1] is recorded as “+ (+ is <30%)”.

`Cc1cccc(C)c1-c1cc2nc(n1)NS(=O)(=O)c1ccccc1C(=O)O[C@H](c1ccc(C(C)(C)C)cc1)[C@@H](C)N2` [Compound 27]: the “Ent. A Max Activity” value in series [1] is on record as “+ (+ is <30%)”.

Take `Cc1cccc(C)c1-c1cc2nc(n1)NS(=O)(=O)c1cccc(c1)C(=O)N(C1CC3(CC3)C1)CCC2C` (stereo not drawn) [Compound 11, 6-(2,6-dimethylphenyl)-9-methyl-2,2-dioxo-12-spiro[2.3]hexan-5-yl-2λ^6-thia-3,5,12,19-tetrazatricyclo[12.3.1.14,8]nonadeca-1(18),4(19),5,7,14,16-hexaen-13-one]: in series [2] (from Cc1cccc(C)c1-c1cc(C(C)CCNC2CC3(CC3)C2)nc(NS(=O)(=O)c2cccc(C(=O)O)c2)n1, NMP, 20.1 mM, 16.0 h), the ring closure, yield after HPLC was determined as 86%. In addition, in series [3], the “Ent. B Max Activity” value was “+++ (+++ is >60%)” and the EC50 was 1000 to 3000 nM.

Take `Cc1cccc(C)c1-c1cc2nc(n1)NS(=O)(=O)c1cccc(c1)C(=O)N(C1CC3(CC3)C1)[C@H](CC(C)C)CC2` [Compound 6, (11S)-6-(2,6-Dimethylphenyl)-11-isobutyl-2,2-dioxo-12-spiro[2.3]hexan-5-yl-2 λ6-thia-3,5,12,19-tetrazatricyclo[12.3.1.14,8]nonadeca-1(18),4(19),5,7,14,16-hexaen-13-one]: the ring closure, yield after HPLC in series [2] (from Cc1cccc(C)c1-c1cc(CC[C@@H](CC(C)C)NC2CC3(CC3)C2)nc(NS(=O)(=O)c2cccc(C(=O)O)c2)n1, NMP, 126.6 mM, 2.0 h) stood at 50%. In addition, in series [3], the “Ent. B Max Activity” value was “+++ (+++ is >60%)” and the EC50 was less than 1000 nM.

The compound `Cc1cccc(C)c1-c1nc2nc(c1F)CC[C@@H](CC(C)C)N(C1CC3(CC3)C1)C(=O)c1cccc(c1)S(=O)(=O)N2` [Compound 4, (11S)-6-(2,6-Dimethylphenyl)-7-fluoro-11-isobutyl-2,2-dioxo-12-spiro[2.3]hexan-5-yl-2 λ6-thia-3,5,12,19-tetrazatricyclo[12.3.1.14,8]nonadeca-1(18),4(19),5,7,14,16-hexaen-13-one] gave a ring closure, yield after HPLC in series [2] (from Cc1cccc(C)c1-c1nc(NS(=O)(=O)c2cccc(C(=O)O)c2)nc(CC[C@@H](CC(C)C)NC2CC3(CC3)C2)c1F, NMP, 100.9 mM, 20.0 h) of 30%. In series [3], the “Ent. B Max Activity” value was “+++ (+++ is >60%)” and the EC50 is less than 1000 nM.

For `Cc1cccc(C)c1-c1cc2nc(n1)NS(=O)(=O)c1cccc(c1)C(=O)O[C@@H](C)[C@@H](CC(C)C)N2` [Compound 36], the “Ent. A Max Activity” value in series [1] was “+ (+ is <30%)”.

Compound `Cc1cccc(C)c1-c1cc2cc(n1)NS(=O)(=O)c1cccc(c1)C(=O)N(C1CC3(CC3)C1)[C@H](CC(C)C)CC2` [Compound 3, (11S)-6-(2,6-Dimethylphenyl)-11-isobutyl-2,2-dioxo-12-spiro[2.3]hexan-5-yl-2 λ6-thia-3,5,12-triazatricyclo[12.3.1.14,8]nonadeca-1(18),4(19),5,7,14,16-hexaen-13-one] displayed a ring closure, yield after HPLC in series [2] (from Cc1cccc(C)c1-c1cc(CC[C@@H](CC(C)C)NC2CC3(CC3)C2)cc(NS(=O)(=O)c2cccc(C(=O)O)c2)n1, DMF, 26.7 mM, 0.25 h) of 19%. In addition, in series [3], the “Ent. B Max Activity” value is on record as “+++ (+++ is >60%)” and the concentration giving a half-maximal response (EC50) is less than 1000 nM.

Consider `Cc1cccc(C)c1-c1cc2nc(n1)NS(=O)(=O)c1cccc(c1)C(=O)OCC[C@H](c1ccccc1)N2` [Compound 28], for which, in series [1], the “Ent. A Max Activity” value is given as “++ (++ is 30-60%)” and the EC50 was in the range of 1000 to 3000 nM.

In the case of `Cc1cccc(C)c1-c1cc2nc(n1)NS(=O)(=O)c1cccc(c1)C(=O)OCC(C)(C)CN2` [Compound 34], the “Ent. A Max Activity” value in series [1] is reported as “+ (+ is <30%)”.

On to `Cc1cccc(C)c1-c1cc2nc(n1)NS(=O)(=O)c1cccc(c1)C(=O)N(C1CC3(CC3)C1)[C@H](CC1(C(F)(F)F)CC1)CC2` [Compound 7, (11S)-6-(2,6-Dimethylphenyl)-2,2-dioxo-12-spiro[2.3]hexan-5-yl-11-[[1-(trifluoromethyl)cyclopropyl]methyl]-2 λ6-thia-3,5,12,19-tetrazatricyclo [12.3.1.14,8]nonadeca-1(18),4(19),5,7,14,16-hexaen-13-one], for which the ring closure, yield after HPLC in series [2] (from Cc1cccc(C)c1-c1cc(CC[C@@H](CC2(C(F)(F)F)CC2)NC2CC3(CC3)C2)nc(NS(=O)(=O)c2cccc(C(=O)O)c2)n1, NMP, 26.8 mM, 16.0 h) was 22%. In addition, in series [3], the “Ent. B Max Activity” value is recorded as “+++ (+++ is >60%)” and the concentration giving a half-maximal response (EC50) is less than 1000 nM.

For the compound `Cc1cccc(C)c1-c1cc2nc(n1)NS(=O)(=O)c1cccc(c1)C(=O)OCC(CCC1(C(F)(F)F)CC1)N2CCC1CCOCC1` (stereo not drawn) [Compound 26, 6-(2,6-dimethylphenyl)-2,2-dioxo-9-(2-tetrahydropyran-4-ylethyl)-10-[2-[1-(trifluoromethyl)cyclopropyl]ethyl]-12-oxa-2λ6-thia-3,5,9,19-tetrazatricyclo[12.3.1.14,8]nonadeca-1(18),4(19),5,7,14,16-hexaen-13-one], in series [1], the “Ent. A Max Activity” value was “+++ (+++ is >60%)” and the half-maximal effective concentration (EC50) fell in the range of 1000 to 3000 nM.

Take `Cc1cccc(C)c1-c1cc2nc(n1)NS(=O)(=O)c1cccc(c1)C(=O)OCC(CCC1(C(F)(F)F)CC1)N2Cc1ccccc1` (stereo not drawn) [Compound 31]: in series [1], the “Ent. A Max Activity” value is given as “++ (++ is 30-60%)” and the 50% effective concentration (EC50) was in the range of 1000 to 3000 nM.

For `Cc1cccc(C)c1-c1cc2nc(n1)NS(=O)(=O)c1cccc(c1)C(=O)OCC[C@@H](c1ccccc1)N2` [Compound 33], in series [1], the “Ent. A Max Activity” value was “+++ (+++ is >60%)” and the EC50 is 1000 to 3000 nM.
